Data: US20240374573A1, “IMIDAZOLE CONTAINING COMPOUNDS, DERIVATIVES THEREFORE, AND USES THEREOF” (AglaeaPharma Inc., priority 2023, published 2024)

Assays:
[1] = target: T1, α2AAR (α2A-adrenergic receptor) (Homo sapiens, UniProt P08913); assay: α2AAR FLIPR assay (agonist activity); assay type: cell-based; settings: FLIPR, α2AAR cell line hosted in HEK293 cells; read-out: α2A agonist activity (EC50)
T1 construct: expressed in transfected cells; host or cells: HEK293
T1 sequence (P08913 1-465): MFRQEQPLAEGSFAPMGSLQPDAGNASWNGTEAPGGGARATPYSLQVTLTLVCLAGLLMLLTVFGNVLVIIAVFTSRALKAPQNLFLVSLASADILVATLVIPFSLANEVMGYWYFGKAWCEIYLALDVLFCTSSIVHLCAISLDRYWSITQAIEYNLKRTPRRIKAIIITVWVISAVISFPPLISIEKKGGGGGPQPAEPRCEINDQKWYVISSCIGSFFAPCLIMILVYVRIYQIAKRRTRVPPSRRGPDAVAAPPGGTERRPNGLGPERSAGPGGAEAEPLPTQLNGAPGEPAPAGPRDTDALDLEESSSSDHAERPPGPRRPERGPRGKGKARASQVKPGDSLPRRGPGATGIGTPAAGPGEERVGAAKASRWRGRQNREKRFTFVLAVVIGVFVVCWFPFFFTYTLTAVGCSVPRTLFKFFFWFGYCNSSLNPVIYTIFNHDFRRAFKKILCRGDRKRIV
Protocol: This experimental protocol involved cell seeding and a FLIPR assay using the α2AAR (α2A-adrenergic receptor) cell line hosted in HEK293 cells. […] On Day 1, the cell seeding process started with the removal of the culture medium, followed by rinsing the cells with DPBS (21-031-CVC, Corning). […] The cells were detached, resuspended in growth media, and centrifuged at room temperature at 1000 rpm for 5 minutes. After discarding the supernatant, the cell pellet was resuspended in growth media to a concentration of 10× 10^5 cells per mL. This suspension was added to 384-well plates (19-Jul-38, Greiner) at 20 μL per well and incubated overnight at 37° C. in 5% CO2.
A 250 mM Probenecid solution was prepared in this buffer. The Fluo-4 Direct™ Loading Buffer was made by dissolving Fluo-4 Direct™ crystals (F10471, Invitrogen) in the FLIPR Assay Buffer and adding Probenecid. The buffer was then vortexed and allowed to stand for over 5 minutes, shielded from light. For the FLIPR procedure, testing compounds for agonist activite were serially diluted and transferred to a 384-well compound plate (25-Jan-39, Greiner). The cell plate was then treated with 2× Fluo-4 Direct™ loading buffer and incubated for 50 minutes at 37° C. in a 5% CO2 atmosphere, followed by 10 minutes at room temperature. Subsequently, the FLIPR assay buffer was added to the compound plate, which is then centrifuged.
The cell plate was analyzed in the FLIPR Tetra+ System for fluorescence signals. For the agonist test, reference compounds were added to the cell plates, and fluorescence was measured. The “Max-Min” calculation began from Read 1 to the maximum allowed. The data were analyzed using Prism software to calculate activation percentage for agonists and inhibition percentage for antagonists. The results were then fitted using specific models to determine EC50 for agonists.
The experimental protocol utilized various reagents and apparatus, including Penicillin/Streptomycin (100×) (SV30010, Hyclone), Poly-L-lysine hydrobromide (P1399, Sigma), and different types of 384-well plates such as the 384-Well PP 2.0 Microplate (PP-0200, LABCYTE) and 384 well Low Dead Volume Microplate (LP-0200, LABCYTE). The use of specific reference compounds like UK14304 was also integral to the assay.

α2AAR = target: T2, α2AAR (Homo sapiens, UniProt P08913); assay: α2AAR binding assay ([3H]-RX 821002 radioligand); settings: [3H]-RX 821002 0.5 nM, HEK293 membranes; read-out: α2A affinity (Ki)
T2 construct: host or cells: HEK293 (membranes)
T2 sequence (P08913 1-465): T1 sequence (P08913 1-465)
Protocol: The α2AR Binding Assay was conducted using a stable HEK293 cell line, specifically constructed by WuXi AppTec for targeting α2AAR. […] Both the assay and wash buffers consist of 50 mM Tris-HCl at a pH of 7.4 (Tris base, Sigma, T1503-1 KG).
The procedure initiated with the preparation of test compounds and a reference compound, yohimbine (Sigma, Y3125), through an 8-point 4-fold serial dilution, transferring 1 μL of each to the assay plate. […] After scaling, the plates were agitated at room temperature for one hour. Subsequently, the Unifilter-96 GF/C filter plates were pre-soaked with 0.3% PEI (Sigma, P3143) for at least half an hour. The reaction mixtures were then filtered and washed four times with cold wash buffer using a Perkin Elmer Cell harvester. Post-filtration, the plates were dried at 50° C. for one hour. […] The top of the plates was then sealed with TopSeal-A sealing film. The trapped 3H was quantified using a Perkin Elmer MicroBeta2 Reader. […] Finally, the data were analyzed with Prism 5.0 software, employing the “log (inhibitor) vs. response-Variable slope” model for data fitting. This comprehensive process ensured precise assessment of the binding affinity of compounds to the α2AAR.

Structure (SMILES)	EC50 [1] [nM]	Ki (α2AAR) [nM]
Cc1cccc(C(c2cccc(C(=O)NCC3CCOCC3)c2)c2c[nH]cn2)c1C (single isomer, unassigned) [98-B]	< 10	< 10
Cc1cccc(C(Cc2cccc(NS(=O)(=O)CC3CCOCC3)c2)c2c[nH]cn2)c1C (single isomer, unassigned) [112-B]	10 to 50	< 10
Cc1cccc(C(Cc2ccc(C(C)C(=O)O)cc2)c2c[nH]cn2)c1C (single isomer, unassigned) [174-B]	10 to 50	10 to 50
Cc1cccc(C(Cc2ccc(C(C)C(=O)O)cc2)c2c[nH]cn2)c1C (single isomer, unassigned) [174-D]	10 to 50	10 to 50
Cc1cccc(C(Cc2ccc(C(=O)O)cc2)c2c[nH]cn2)c1C (single isomer, unassigned) [175-B]	10 to 50	50 to 250
CONC(=O)c1cccc(C(c2c[nH]cn2)c2cccc(C)c2C)c1 (stereo not drawn) [compound 1]	50 to 250	50 to 250
Cc1cccc(C(COCCOCCNC(=O)Nc2ccncn2)c2c[nH]cn2)c1C (stereo not drawn) [compound 20]	10 to 50	50 to 250
Cc1cccc(C(c2cccc(OCCNS(C)(=O)=O)c2)c2c[nH]cn2)c1C (stereo not drawn) [compound 22]	10 to 50	10 to 50
Cc1cccc(C(COCCOCCOCCNS(C)(=O)=O)c2c[nH]cn2)c1C (stereo not drawn) [compound 26]	10 to 50	50 to 250
Cc1cccc(C(c2c[nH]cn2)c2cccc(C(N)=O)c2F)c1C (stereo not drawn) [compound 27]	10 to 50	< 10
CNS(=O)(=O)c1cccc(C(c2c[nH]cn2)c2cccc(C)c2C)c1 (stereo not drawn) [compound 28]	10 to 50	10 to 50
Cc1cccc(C(c2cccc(NS(C)(=O)=O)c2)c2c[nH]cn2)c1C (stereo not drawn) [compound 29]	10 to 50	< 10
CC(=O)Nc1cccc(C(c2c[nH]cn2)c2cccc(C)c2C)c1 (stereo not drawn) [compound 30]	50 to 250	50 to 250
Cc1cccc(C(c2ccnc(C(N)=O)c2)c2c[nH]cn2)c1C (stereo not drawn) [compound 31]	10 to 50	50 to 250
Cc1cccc(C(c2cccc(NCCC#N)c2)c2c[nH]cn2)c1C (stereo not drawn) [compound 32]	50 to 250	50 to 250
Cc1cccc(C(c2cccc(NC(=O)CCC#N)c2)c2c[nH]cn2)c1C (stereo not drawn) [compound 43]	10 to 50	10 to 50
CC(=O)Nc1cccc(C(c2c[nH]cn2)c2cccc(C)c2C)c1F (stereo not drawn) [compound 50]	50 to 250	50 to 250
Cc1cccc(C(c2c[nH]cn2)c2cccc(NS(C)(=O)=O)c2F)c1C (stereo not drawn) [compound 51]	50 to 250	10 to 50
CONC(=O)c1cccc(C(c2c[nH]cn2)c2cccc(C)c2C)c1F (stereo not drawn) [compound 54]	10 to 50	10 to 50
CONC(=O)c1cccc(CC(c2c[nH]cn2)c2cccc(C)c2C)c1 (stereo not drawn) [compound 61]	10 to 50	10 to 50
CSCCC(=O)Nc1cccc(C(c2c[nH]cn2)c2cccc(C)c2C)c1 (stereo not drawn) [compound 63]	10 to 50	10 to 50
Cc1cccc(C(c2cccc(NC(=O)CCN3CCOCC3)c2)c2c[nH]cn2)c1C (stereo not drawn) [compound 70]	10 to 50	10 to 50
Cc1cccc(C(Cc2cccc(NS(C)(=O)=O)c2)c2c[nH]cn2)c1C (stereo not drawn) [compound 76]	50 to 250	< 10
Cc1cccc(C(c2cccc(NC(=O)CC3CCNC3)c2)c2c[nH]cn2)c1C (stereo not drawn) [compound 79]	50 to 250	10 to 50

Structure (SMILES)	EC50 [1] [nM]	Ki (α2AAR) [nM]
Cc1cccc(C(c2cccc(C(=O)CCC#N)c2)c2c[nH]cn2)c1C (stereo not drawn) [compound 85]	50 to 250	10 to 50
Cc1cccc(C(c2cccc(NS(=O)(=O)CC3CCOC3)c2)c2c[nH]cn2)c1C (stereo not drawn) [compound 86]	10 to 50	< 10
Cc1cccc(C(c2cccc(NC(=O)CCCN3CCOCC3)c2)c2c[nH]cn2)c1C (stereo not drawn) [compound 88]	50 to 250	10 to 50
Cc1cccc(C(c2cccc(NC(=O)CCN3CCCC3)c2)c2c[nH]cn2)c1C (stereo not drawn) [compound 89]	50 to 250	10 to 50
Cc1cccc(C(c2cccc(NC(=O)CCN3CCNCC3)c2)c2c[nH]cn2)c1C (stereo not drawn) [compound 90]	50 to 250	50 to 250
Cc1cccc(C(c2cccc(NS(=O)(=O)CCN3CCOCC3)c2)c2c[nH]cn2)c1C (stereo not drawn) [compound 94]	50 to 250	50 to 250
Cc1cccc(C(c2cccc(NC(=O)CC3CCCCO3)c2)c2c[nH]cn2)c1C (stereo not drawn) [compound 96]	10 to 50	< 10
CC(=O)N1CCC(CC(=O)Nc2cccc(C(c3c[nH]cn3)c3cccc(C)c3C)c2)CC1 (stereo not drawn) [compound 102]	10 to 50	10 to 50
Cc1cccc(C(c2cccc(NC(=O)CC3CCCOC3)c2)c2c[nH]cn2)c1C (stereo not drawn) [compound 104]	10 to 50	< 10
Cc1cccc(C(c2cccc(NC(=O)CC3CCS(=O)(=O)CC3)c2)c2c[nH]cn2)c1C (stereo not drawn) [compound 117]	< 10	10 to 50
Cc1cccc(C(c2cccc(NS(=O)(=O)CC3CCOCC3)c2)c2c[nH]cn2)c1C (stereo not drawn) [compound 119]	10 to 50	< 10
Cc1cccc(C(c2cccc(NC(=O)CC3=CCOCC3)c2)c2c[nH]cn2)c1C (stereo not drawn) [compound 120]	< 10	< 10
Cc1cccc(C(c2cccc(NC(=O)CN3CCC(O)CC3)c2)c2c[nH]cn2)c1C (stereo not drawn) [compound 123]	10 to 50	< 10
Cc1cccc(C(c2c[nH]cn2)c2cccc(C(=O)NCC3CCOCC3)c2F)c1C (stereo not drawn) [compound 124]	10 to 50	< 10
CCOP(=O)(OCC)c1cccc(C(c2c[nH]cn2)c2cccc(C)c2C)c1 (stereo not drawn) [compound 126]	10 to 50	< 10
Cc1cccc(C(c2cccc(S(N)(=O)=O)c2)c2c[nH]cn2)c1C (stereo not drawn) [compound 133]	10 to 50	10 to 50
Cc1cccc(C(Cc2cccc(NS(=O)(=O)C3CCOCC3)c2)c2c[nH]cn2)c1C (stereo not drawn) [compound 134]	10 to 50	< 10
Cc1cccc(C(COCCNS(=O)(=O)CC2CCOCC2)c2c[nH]cn2)c1C (stereo not drawn) [compound 139]	10 to 50	10 to 50
Cc1cccc(C(c2cccc(NC(=O)CC[n+]3ccccc3)c2)c2c[nH]cn2)c1C (stereo not drawn) [compound 143]	50 to 250	10 to 50
Cc1cccc(C(c2cccc(C(=O)NOC3CCOCC3)c2)c2c[nH]cn2)c1C (stereo not drawn) [compound 145]	10 to 50	< 10
CNC(=O)Nc1cccc(C(c2c[nH]cn2)c2cccc(C)c2C)n1 (stereo not drawn) [compound 146]	10 to 50	10 to 50
COCCC(=O)Nc1cccc(C(c2c[nH]cn2)c2cccc(C)c2C)c1 (stereo not drawn) [compound 147]	10 to 50	10 to 50
COCCCC(=O)Nc1cccc(C(c2c[nH]cn2)c2cccc(C)c2C)c1 (stereo not drawn) [compound 148]	10 to 50	10 to 50
Cc1cccc(C(c2cccc(NC(=O)C3CCOCC3)c2)c2c[nH]cn2)c1C (stereo not drawn) [compound 149]	10 to 50	10 to 50
